Here are results for nine molecules from US12533425B2, “Methods and systems using peptides for targeting and mapping human nerves in image guided surgery, diagnostics and therapeutic delivery” (ALUME BIOSCIENCES, INC., priority 2019, dated 2026).

No end group written: not given here. Some results are limits rather than exact numbers.

Assay [1] can be described thus: Fluorescent plate reader assay of quenching of FAM-NP41 fluorescence by food dyes. The source says: (§1) FIGS. 21A-21C: Food dyes efficiently quench FAM-NP41 bladder fluorescence. A fluorescent plate reader assay was used to show dose dependent quenching of FAM-NP41 fluorescence. Erythrosine extra bluish (Santa Cruz Biotechnology, Inc.) was the most efficient quencher with >˜80% quenching at 2.5 times dye to fluorescein ratio and >95% quenching at 5× dye to fluorescein ratio (A). Other food dyes tested included Allura Red and Sunset Yellow. To test for quenching in-vivo we administered, by direct iv injection, 50 mg/kg MW 879.76 (˜1.5 μmoles per 25 gm mouse) to mice that had been injected with 150 nmoles of FAM-NP41 2 hours prior. This represents approximately a 10× dye to FAM-NP41 dose. Some bladder fluorescence remained after imaging so additional dye (30 μl, 10 mM Erythrosin extra bluish) was injected directly into the bladder. […] Dye would likely not be needed if this method was used for human patients as bladder catheterization in patients could be started as FAM-NP41 is administered so bladder fluorescence could be washed out.

A further assay relates to bladder fluorescence. The assay is described as follows: In-vivo quenching of FAM-NP41 bladder fluorescence. Details: species or system mouse. To be noted: 50 mg/kg i.v. plus 30 μl 10 mM intra bladder, 150 nmoles FAM-NP41 2 hours prior.
Text: as §1

The next assay has as its system human sural nerve. The assay is described as follows: Topical application of FAM-labelled peptides on sections of human sural nerve and temporalis muscle. The format is binding. The settings on record: for normalized average signal intensity for nerve binding: normalized to parent FAM-HNP401, topical 100 μM, human sural nerve sections; for effect of truncation on binding and solubility: deletion from C terminus of HNP401; for nerve binding and nerve to muscle contrast (words): topical 100 μM, human nerve and temporalis muscle sections. The source says: To determine the affinity of phage selected peptides for binding to human nerve they were chemically synthesized by solid-phase synthesis and labeled with fluorescein at the C-terminus via a GGC linker. Peptides were topically applied to sectioned human sural nerve and human temporalis muscle to determine nerve to muscle contrast. […] To confirm binding and contrast of HNP401 for additional nerve types binding was compared in nerve and muscle with both HNP401 and NP41 on facial brachial plexus nerve (FIG. 9). […] FAM-HNP401 was additionally tested topically on ex-vivo tissue for labeling of mouse facial nerve with surrounding muscle (FIG. 10, J-M).
To test the affinity of selected phage display peptides for binding to human nerves, they were chemically synthesized by solid-phase synthesis and labeled with fluorescein at the C-terminus. Peptides were topically applied to sections of surgically harvested human sural nerve and temporalis muscle to determine nerve to muscle contrast for selected peptides and controls (FIG. 23). […] To quantify differential binding to nerve versus muscle, fluorescence signal intensity was measured for ROIs from the perineurium of select nerves and human temporalis muscle.
To enhance and attempt to determine the core binding domain of HNP401, systematic deletion of two amino acids from the C or N terminus was performed (see, for example, FIG. 30) followed by binding analysis on human sural nerve sections (FIG. 20). In each case nerve binding and signal intensity was normalized to the parent FAM-HNP401 peptide (FIG. 20J).
Image J was used to analyze and compare images acquired using the confocal microscope and the Lumar dissecting scope. For each experimental set where probes were compared, we kept the acquisition parameters identical so as to directly compare the data obtained. […] All raw image files for a given experimental cohort were loaded at the same time into Image J as 16-bit tiff images. We then levelled the image for tissue treated with FAM-HNP401. Once these levels were set, the settings are propagated to all images in one step using Image J. The brightest image is set as the benchmark for all other images in the cohort to avoid saturating when the leveling is propagated.

The test system of assay [2] is rat prostate cavernosal nerve. The assay is described as follows: In-vivo labelling of rat prostate and sciatic nerve. The settings on record: i.v., FAM-labelled peptide. The protocol:
FIG. 6: Fluorescent labeling of rat prostate cavernosal nerve in live rats.
Either 150 or 450 nmoles nmoles of fluorescein labeled synthetic peptides were injected intravenously into mice. After a 2 hour waiting period for washout of nonspecific binding, mice were anesthetized and skin incisions were made over the dorsal surface of the hind legs to expose the sciatic nerve. Brightfield and fluorescent images were obtained with a dissecting microscope using Metamorph software (FIG. 1). Quantitation of fluorescence of nerves and adjacent non-nerve tissue was performed with Image J (FIG. 2). Peptides were also topically applied to human nerve sections. […]
Following anesthesia with intra-peritoneal injection of ketamine (80 mg/kg) and midazolam (40 mg/kg), FAM-NP41 or its variants were administered into mice retro-orbitally. […] The autonomic nerve along the cavernosal vessel in the prostate was imaged and recorded using a custom-made surgical imaging system. This system is a modified from Olympus MVX10 scope capable of hi-resolution fluorescence, RGB reflectance and realtime overlay with zoom from 0.6 to 5.7 cm field of view. ImageJ was used for quantitative analysis of nerve contrast for each peptide dye conjugate tested. Images of autonomic nerve in prostate were selected from the recorded files and magnified 300-400% prior to selection of ROI and measurement. […]

Consider `O=C1OC2(c3ccccc31)c1cc(I)c(O)c(I)c1Oc1c2cc(I)c(O)c1I` [Erythrosine extra bluish], for which the “quenching of FAM-NP41 fluorescence” value in assay [1] (2.5 times dye to fluorescein ratio) is on record as above 80%; in assay [1] (5× dye to fluorescein ratio), above 95%. Further, the “bladder fluorescence after quencher” value in the assay on bladder fluorescence was “near background level”. On to “Ac-EEPYYVVKKSSGGC [HNP401-N-6, with GGC linker, tested FAM labelled]”, for which the “normalized average signal intensity for nerve binding” value (“normalized average signal intensity” for short) in the assay on human sural nerve is listed as 1.0±0.34. For the molecule “Ac-PWEEPYYVVKKSSGGC [HNP401-N-4, with GGC linker, tested FAM labelled]”, in the assay with human sural nerve, the “normalized average signal intensity” value stood at 0.56±0.18. For “Ac-PYYVVKKSSGGC [HNP401-N-8, with GGC linker, tested FAM labelled]”, the “normalized average signal intensity” value with human sural nerve was determined as 0.98±0.31. As to “Ac-QVPWEEPYYVVKKSSGGC [HNP401-N-2, with GGC linker, tested FAM labelled]”, in the assay with human sural nerve (human sural nerve vs temporalis muscle), the “normalized nerve to temporalis muscle contrast, increase with respect to FAM-HNP401” value stood at 3 fold. For the same molecule, in the assay with human sural nerve, the “normalized average signal intensity” value was 2.02±0.65. Also, in the assay on human sural nerve (topical 100 uM FAM labelled, human nerve sections, n=5), the “average signal intensity, nerve binding of deletion variants” value was 1498.73 (+/−517.63). Regarding “Ac-SGQVPWEEPYYVVGGC [HNP401-C-4, with GGC linker, tested FAM labelled]”, in the assay with human sural nerve, the “effect of truncation on binding and solubility” value is “reduced dramatically”; the “normalized average signal intensity” value was 0.49±0.11. For “Ac-SGQVPWEEPYYVVKKGGC [HNP401-C-2, with GGC linker, tested FAM labelled]”, the “effect of truncation on binding and solubility” value with human sural nerve was “tolerated”. Consider SEFPRSWDMETN [HNP301], for which the “fluorescent labeling of rat prostate and sciatic nerve in live rats” value in assay [2] is reported as “not showing as much contrast”.

On to carboxyfluorescein [reference compound], for which the “nerve binding and nerve to muscle contrast (words)” value in the assay on human sural nerve is “only weak non-specific binding”; in the assay with human sural nerve (listed as Carboxyfluorescein), “low signal and non-specific binding”.
